According to patent US20250346604A1, “TRIAZOLOPYRIDAZINE COMPOUNDS USEFUL AS RAC1 INHIBITORS” (Revere Pharmaceuticals, priority 2022, published 2025):
Read-outs that look alike come from different tables or passages of the source.

How the values were obtained:
Rac1 [1] = molecular target: T1, Rac1 (Homo sapiens (Human), UniProt P63000); experiment: Rac Activation AlphaScreen Assay (RacI AS); type: biochemical
Procedure: 2. Rac Activation AlphaScreen Assay (RacI AS)
AlphaScreen® assays were performed in 96-well microplates in a final reaction volume of 60 μL. Recombinant His-Rac1, recombinant GST-PBD (PAK Binding Domain), donor and acceptor beads (PerkinElmer), and inhibitors were incubated in exchange buffer (20 mM Tris pH 7.5, 50 mM NaCl, 1 mM MgCl2, 1 mM EDTA, 500 nM GTPyS (guanosine 5′-[Y-thio]triphosphate)) at 37° C. Readings were performed on a Tecan M 1000 pro microplate reader after 1 hour. Data was analyzed using the GraphPad Prism software (GraphPad Software, Inc.), and IC50 (dose leading to 50% disruption of complex) was calculated from the dose-response curves.

[2] = test system: MCF-7 human breast cancer cell line; experiment: Cell Viability Assay (MCF7); type: cell-based; conditions: MCF7, three days after drug treatment
Procedure: 1. Cell Viability Assay (MCF7)
In order to determine a compound's effect on cell viability, PrestoBlue assays were performed as previously described by Kuhn et al. (2013) with modifications. MCF-7 human breast cancer and IGR-1 human melanoma cell lines were seeded into 384-well plates 24 hours prior to addition of drug. Cells are treated with 0 to 100 μM (concentrations) of compound solubilized in DMSO, adjusting the final concentration of DMSO to 0.5% in the well. Three days after drug treatment, cell viability was measured by adding Cell Titer Glo (Promega.; cat. No. G7570) according to the manufacturer's instructions. Briefly, Cell Titer Glo Substrate is diluted in Cell Titer Glo Buffer making the Cell Titer Glo Reagent. Cell Titer Glo Reagent is added to each well, mixed for 2 minutes to lyse cell, and then luficerase signal is read on a plate reader. Data is analyzed using the GraphPad Prism software (GraphPad Software, Inc.), and IC50 (dose leading to 50% cell death) was calculated from the dose-response curves. The percentage of living cells was then computed by comparison with control wells. Kuhn, Jonas et al., Assay and Drug Development Technologies, March 2013, Label-Free Cytotoxicity Screening Assay by Digital Holographic Microscopy.

[3] = Mouse Liver Microsome (MLM) Stability Assay; type: in vitro ADME; conditions: for MLM Clearance (μL/min/mg protein) / microsomal CLint: mouse liver microsomes
Procedure: 5. Mouse Liver Microsome (MLM) Stability Assay
Incubation of test compounds with mouse liver microsomes in the presence of NADPH co-factor was used to assay the in vitro mouse liver microsome metabolic clearance rate. In the presence of the co-factor NADPH, which initiates the reaction, mouse liver microsomes were incubated with test compounds at 37° C. at fixed time intervals. After centrifugation, supernatants were measured by LC/M S. The amount of compound at each time interval was compared to the amount of compound present at the 0 minute timepoint and percentage compound remaining values were calculated. MLM intrinsic clearance (Clint) (μL/min/mg protein) is calculated based on compound half-life.

[4] = test system: estrogen positive and HER2 positive breast cancer, prostate cancer, melanoma and colorectal cancer; conditions: single agent and in combination with standard of care; cited from earlier work
Rac1 [5] = molecular target: T1, Rac1; experiment: Rac Activation AlphaScreen Assay (RacI AS); type: biochemical; conditions: wild type Rac1, AlphaLisa assay; read-out: IC50 inhibitory concentration versus wild type Rac1
Rac = Rac (Homo sapiens (Human), UniProt P63000); conditions: versus NSC23766; cited from earlier work
[6] = oral administration in mice; cited from earlier work
c-M et = c-M et (Homo sapiens (Human), UniProt P08581); experiment: commercial kinase screen (KinaseScan by Eurofins Discovery), c-Met; type: binding; conditions: at a concentration that was substantially inhibitory for Rac1
Sequence of c-M et (P08581 25-1390): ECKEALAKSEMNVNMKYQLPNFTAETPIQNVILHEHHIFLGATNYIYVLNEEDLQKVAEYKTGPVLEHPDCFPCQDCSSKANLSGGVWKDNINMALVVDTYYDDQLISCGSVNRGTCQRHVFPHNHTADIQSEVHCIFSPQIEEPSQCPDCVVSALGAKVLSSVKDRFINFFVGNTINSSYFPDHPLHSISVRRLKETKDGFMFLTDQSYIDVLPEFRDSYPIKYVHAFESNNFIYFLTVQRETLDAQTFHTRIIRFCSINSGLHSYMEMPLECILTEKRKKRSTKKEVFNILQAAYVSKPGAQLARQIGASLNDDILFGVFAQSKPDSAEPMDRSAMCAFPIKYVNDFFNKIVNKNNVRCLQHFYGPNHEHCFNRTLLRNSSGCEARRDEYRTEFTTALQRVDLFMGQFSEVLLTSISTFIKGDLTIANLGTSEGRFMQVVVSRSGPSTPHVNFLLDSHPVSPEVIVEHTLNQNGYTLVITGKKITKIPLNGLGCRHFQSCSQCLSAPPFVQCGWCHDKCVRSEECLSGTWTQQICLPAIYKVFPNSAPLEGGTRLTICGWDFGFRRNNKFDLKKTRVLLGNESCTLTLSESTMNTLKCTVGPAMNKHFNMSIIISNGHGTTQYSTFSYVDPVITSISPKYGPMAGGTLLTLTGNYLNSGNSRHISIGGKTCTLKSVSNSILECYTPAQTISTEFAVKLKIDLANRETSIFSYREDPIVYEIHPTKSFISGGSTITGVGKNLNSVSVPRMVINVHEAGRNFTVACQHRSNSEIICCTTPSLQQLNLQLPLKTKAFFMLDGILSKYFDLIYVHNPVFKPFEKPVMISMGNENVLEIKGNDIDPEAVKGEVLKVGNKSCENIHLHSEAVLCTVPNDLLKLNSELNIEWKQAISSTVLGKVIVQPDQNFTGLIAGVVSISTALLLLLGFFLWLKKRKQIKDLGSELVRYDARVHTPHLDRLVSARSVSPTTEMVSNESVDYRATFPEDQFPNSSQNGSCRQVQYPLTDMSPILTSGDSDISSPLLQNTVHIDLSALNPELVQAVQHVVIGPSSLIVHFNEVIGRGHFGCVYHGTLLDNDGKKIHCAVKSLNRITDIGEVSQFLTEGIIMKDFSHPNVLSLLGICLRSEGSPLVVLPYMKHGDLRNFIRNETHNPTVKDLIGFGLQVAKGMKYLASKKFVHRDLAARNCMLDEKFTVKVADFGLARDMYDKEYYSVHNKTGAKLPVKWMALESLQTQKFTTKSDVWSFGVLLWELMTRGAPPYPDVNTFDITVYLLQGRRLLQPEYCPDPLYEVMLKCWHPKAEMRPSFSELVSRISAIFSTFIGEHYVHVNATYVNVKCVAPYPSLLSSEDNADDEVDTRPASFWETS
Procedure: (§1) The disclosed compounds in general have no or minimal activity against c-M et. Representative compounds were tested in a commercial kinase screen of over 90 kinases (KinaseScan by Eurofins Discovery).

over 90 kinases = experiment: commercial kinase screen (KinaseScan by Eurofins Discovery); type: binding; conditions: at a concentration that was substantially inhibitory for Rac1
Procedure: as §1

[7] = Table 1, Formula I-A, read-out: Activity
[8] = Table 2, Formula I-B, read-out: IC50
[9] = Table 4, comparator compounds, read-out: IC50
[10] = NADPH, 37° C., read-out: MLM Clearance (μL/min/mg protein)
[11] = Table 3, other compounds of Formula I, read-out: IC50

Row | SMILES | IC50 (Rac1 [1]; [7]) | IC50 (Rac1 [1]; read-out: Rac1 IC50) | IC50 [2] | further results
1 | COc1cccc(C(=O)Nc2cccc(-c3ccc4nnc(-c5ccc(C)o5)n4n3)c2)c1 [Compound 100] | ≤ 1000 nM | 80 nM | 11300 nM | 
2 | Cc1ccc(-c2nnc3ccc(-c4cccc(NC(=O)c5ccc(F)c(F)c5)c4)nn23)o1 [Compound 106] | ≤ 1000 nM | 270 nM | 3500 nM | MLM clearance [3]: below 50 μL/min/mg protein; MLM Clearance (μL/min/mg protein) ([3]; NADPH, 37° C.): 28.2 μL/min/mg protein
3 | FC(F)(F)c1ccc2c(SCCCCCCn3cnc(CN4CCOCC4)c3)ccnc2c1 [GY S32661] |  |  |  | activity against animal models of cancer [4]: very good activity
4 | COc1cccc(C(=O)Nc2cccc(-c3ccc4nnc(-c5cncs5)n4n3)c2)c1 [Compound 200] |  | 240 nM | 1800 nM | IC50 (Rac1 [1]; [8]): ≤ 1000 nM; MLM Clearance (μL/min/mg protein) ([3]; NADPH, 37° C.): 54 μL/min/mg protein
5 | COc1ccc(C(=O)Nc2cccc(-c3ccc4nnc(-c5ccc(C)o5)n4n3)c2)cc1OC [Comparator 1, reference compound] |  | > 5000 nM |  | IC50 (Rac1 [1]; [9]): 1000 to 10000 nM
6 | CCn1c2ccccc2c2cc(Nc3ccnc(NCCCN4CCOCC4)n3)ccc21 [EHop-016] |  |  |  | IC50 (Rac1 [5]): ~10000 nM; efficiency as an inhibitor of Rac activity relative to NSC23766 (Rac): 100 fold; systemic exposure [6]: low systemic exposure
7 | Cc1ccc(-c2nnc3ccc(-c4cccc(NC(=O)c5ccc(F)c(Cl)c5)c4)nn23)o1 [Compound 103, 3-chloro-4-fluoro-N-(3-(3-(5-methylfuran-2-yl)-[1,2,4]triazolo[4,3-b]pyridazin-6-yl)phenyl)benzamide] | ≤ 1000 nM | 430 nM |  | microsomal CLint [3, 10]: 4.5 µL/min/mg; IC50 ([2]; Homo sapiens, 72 h): 2300 nM
8 | Cc1ccc(-c2nnc3ccc(-c4cccc(NC(=O)c5cccc(Cl)c5)c4)nn23)o1 [Compound 119, 3-chloro-N-(3-(3-(5-(methyl-d3)furan-2-yl)-[1,2,4]triazolo[4,3-b]pyridazin-6-yl)phenyl) benzamide] |  | 1500 nM | 6300 nM | 
9 | Cc1ccc(-c2nnc3ccc(-c4cccc(NC(=O)c5ccc(F)cc5)c4)nn23)s1 [Compound 304] |  | 690 nM | 19800 nM | IC50 (Rac1 [1]; [11]): ≤ 1000 nM
10 | O=C(Nc1cccc(-c2ccc3nnc(-c4cncs4)n3n2)c1)c1ccc(F)cc1 [Compound 201, 4-fluoro-N-(3-(3-(thiazol-5-yl)-[1,2,4]triazolo[4,3-b]pyridazin-6-yl)phenyl)benzamide] |  | 170 nM |  | IC50 (Rac1 [1]; [8]): ≤ 1000 nM; microsomal CLint [3, 10]: 15.5 µL/min/mg; IC50 ([2]; Homo sapiens, 72 h): 3100 nM
11 | CCc1cc(C(=O)Nc2cccc(-c3ccc4nnc(-c5ccc(C)o5)n4n3)c2)ccc1F [Compound 114, 3-ethyl-4-fluoro-N-(3-(3-(5-methylfuran-2-yl)-[1,2,4]triazolo[4,3-b]pyridazin-6-yl)phenyl)benzamide] | ≤ 1000 nM |  |  | microsomal CLint ([3]; mouse, read-out: MLM clearance): < 50 µL/min/mg
12 | Cc1ccc(-c2nnc3ccc(-c4cccc(NC(=O)c5cccc(SC(C)C)c5)c4)nn23)o1 [Compound 109, 3-(isopropylthio)-N-(3-(3-(5-methylfuran-2-yl)-[1,2,4]triazolo[4,3-b]pyridazin-6-yl)phenyl)benzamide] | ≤ 1000 nM |  |  | 
13 | Cc1ccc(-c2nnc3ccc(-c4cccc(NC(=O)c5cccc(F)c5)c4)nn23)o1 [Compound 105] | ≤ 1000 nM | 150 nM | 2000 nM | MLM Clearance (μL/min/mg protein) ([3]; NADPH, 37° C.): 38.7 μL/min/mg protein
14 | Cc1ccc(-c2nnc3ccc(-c4cccc(NC(=O)c5cccc(Cl)c5)c4)nn23)o1 [Compound 102, 3-chloro-N-(3-(3-(5-methylfuran-2-yl)-[1,2,4]triazolo[4,3-b]pyridazin-6-yl)phenyl)benzamide] | ≤ 1000 nM | 520 nM |  | activity against c-Met (c-M et): inactive; microsomal CLint [3, 10]: 19.7 µL/min/mg; IC50 ([2]; Homo sapiens, 72 h): 1400 nM; activity against all kinases tested (over 90 kinases): inactive
15 | COc1ccc(OC)c(C(=O)Nc2cccc(-c3ccc4nnc(-c5ccc(C)o5)n4n3)c2)c1 [Comparator 3, reference compound] |  | > 5000 nM |  | IC50 (Rac1 [1]; [9]): > 10000 nM
16 | COc1cc(C(=O)Nc2cccc(-c3ccc4nnc(-c5ccc(C)o5)n4n3)c2)cc(OC)c1OC [Comparator 2, reference compound] |  | > 5000 nM |  | IC50 (Rac1 [1]; [9]): > 10000 nM
17 | CCc1cccc(C(=O)Nc2cccc(-c3ccc4nnc(-c5ccc(C)o5)n4n3)c2)c1 [Compound 111, 3-ethyl-N-(3-(3-(5-methylfuran-2-yl)-[1,2,4]triazolo[4,3-b]pyridazin-6-yl)phenyl) benzamide] | ≤ 1000 nM |  |  | MLM clearance [3]: below 50 μL/min/mg protein
18 | Cc1ccc(-c2nnc3ccc(-c4cccc(NC(=O)c5cccc(Cl)c5)c4)nn23)s1 [Compound 303] |  | > 5000 nM | > 10000 nM | IC50 (Rac1 [1]; [11]): 1000 to 10000 nM
